The values that follow come from US5047418A, “Method of stimulating histamine H3 -receptors” (Smith Kline & French Laboratories Limited, priority 1989, dated 1991).

Assay [1] concerns the target T1, histamine H1 -receptor (Cavia porcellus, UniProt P31389). The experiment in a line: Histamine H1-antagonist activity on guinea-pig ileum. The method, then: (§1) The activity of the compounds of the formula (1) at the histamine H1 - or H2 -receptor was assessed substantially as described by Parsons et al., Agents and Actions, 1976, 7(1), 31.
On the guinea-pig ileum the compound of the formula (1) wherein X is CH2 had no histamine H1 -antagonist activity up to 10^-5 M.

For assay [2], the target named is T2, histamine H2 -receptor (Cavia porcellus, UniProt P47747).
T2 construct: On the guinea-pig atrium; from tissue; host or cells: guinea-pig atrium (isolated tissue)
The experiment in a line: Histamine H2-antagonist activity on guinea-pig atrium. Conditions: read-out: pA2 (histamine H2 -antagonist activity) (converted).

Assay [3] has as its target T2, histamine H2 -receptor. The experiment in a line: Histamine H2-agonist activity on guinea-pig atrium. The method, then: as §1
A further assay deals with T3, histamine H3 -receptor (Cavia porcellus, UniProt Q9JI35).
T3 construct: twitch responses of the guinea-pig ileum; from tissue; host or cells: guinea-pig ileum (isolated, electrically stimulated, organ bath)
The experiment in a line: Inhibition of electrically evoked twitch responses of guinea-pig ileum (histamine H3-agonist activity). Particulars: read-out: EC50 (concentration of compound which caused 50% inhibition of the twitch response). How it is done: Inhibition of the electrically evoked twitch responses of the guinea-pig ileum by histamine H3 -receptor agonists was studied by addition of graded concentrations of the compound (in volumes of 25 μl or 79 μl) to the organ bath in a sequential manner. Each concentration of agonist was washed out of the bath when the response had reached equilibrium. A four minute period was allowed between each addition of the compound.

Assay [4] concerns the target T1, histamine H1 -receptor. The assay can be described thus: Histamine H1-agonist activity on guinea-pig ileum. How it is done:
as §1

Each structure is given as a SMILES string. Some results are limits rather than exact numbers.

T2 sequence (P47747 whole entry): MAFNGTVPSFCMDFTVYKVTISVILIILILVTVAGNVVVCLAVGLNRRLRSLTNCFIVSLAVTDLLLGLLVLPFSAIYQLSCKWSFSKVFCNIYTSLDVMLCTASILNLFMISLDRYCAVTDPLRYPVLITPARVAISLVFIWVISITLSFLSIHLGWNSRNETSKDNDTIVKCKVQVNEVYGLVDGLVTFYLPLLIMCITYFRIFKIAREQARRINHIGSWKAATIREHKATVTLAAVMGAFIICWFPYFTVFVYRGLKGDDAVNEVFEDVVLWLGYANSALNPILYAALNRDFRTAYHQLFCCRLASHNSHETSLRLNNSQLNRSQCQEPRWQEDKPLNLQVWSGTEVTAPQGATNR
T1 sequence (P31389 whole entry): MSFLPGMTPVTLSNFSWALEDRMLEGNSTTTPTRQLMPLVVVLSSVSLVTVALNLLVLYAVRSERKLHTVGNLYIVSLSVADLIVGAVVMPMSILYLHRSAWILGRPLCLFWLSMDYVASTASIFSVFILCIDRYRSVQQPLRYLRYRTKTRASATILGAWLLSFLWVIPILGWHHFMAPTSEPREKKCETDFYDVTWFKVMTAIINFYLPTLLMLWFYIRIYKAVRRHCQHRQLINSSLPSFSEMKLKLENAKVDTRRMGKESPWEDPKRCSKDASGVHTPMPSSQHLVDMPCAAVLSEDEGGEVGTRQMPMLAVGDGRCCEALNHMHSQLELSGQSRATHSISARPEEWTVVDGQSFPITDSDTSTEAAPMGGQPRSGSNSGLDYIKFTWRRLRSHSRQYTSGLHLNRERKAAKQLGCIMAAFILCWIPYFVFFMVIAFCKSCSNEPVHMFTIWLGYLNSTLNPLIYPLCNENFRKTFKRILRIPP
T3 sequence (Q9JI35 whole entry): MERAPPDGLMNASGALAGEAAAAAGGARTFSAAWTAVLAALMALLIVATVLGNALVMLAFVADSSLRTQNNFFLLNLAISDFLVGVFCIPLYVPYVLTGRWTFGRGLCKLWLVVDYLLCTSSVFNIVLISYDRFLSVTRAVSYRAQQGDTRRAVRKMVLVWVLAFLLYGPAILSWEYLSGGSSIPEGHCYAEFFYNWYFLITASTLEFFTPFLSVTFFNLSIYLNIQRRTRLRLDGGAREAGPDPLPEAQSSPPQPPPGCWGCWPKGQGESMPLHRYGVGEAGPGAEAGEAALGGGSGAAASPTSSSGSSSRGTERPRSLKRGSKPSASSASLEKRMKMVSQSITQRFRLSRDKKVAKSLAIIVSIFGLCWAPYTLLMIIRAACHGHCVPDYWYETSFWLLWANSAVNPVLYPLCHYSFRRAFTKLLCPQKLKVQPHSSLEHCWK

`N=C(N)CCCc1c[nH]cn1` [X = CH2, 4-(4(5)-imidazolyl)butyramidine]: on histamine H1 -receptor [1], the “concentration at which histamine H1 -antagonist activity is demonstrated” value is > 10^-5 M. Further, the Kb at histamine H2 -receptor [2] was about 251 µM. Further, on histamine H2 -receptor [3], the “concentration at which histamine H2 -agonist activity is demonstrated” value is listed as > 10^-5 M. Also, the EC50 at histamine H3 -receptor was determined as 1.1 nM. The “concentration at which histamine H1 -agonist activity is demonstrated” value on histamine H1 -receptor [4] was > 10^-5 M.

Turning to `N=C(N)SCCc1c[nH]cn1` [X = S, S-[2-(4(5)-imidazolyl)ethyl]isothiourea], the Kb at histamine H2 -receptor [2] is 79.4 µM. Besides, at histamine H3 -receptor, the EC50 amounted to 4.6 nM. In addition, on histamine H1 -receptor [4], the “concentration at which histamine H1 -agonist activity is demonstrated” value was 10^-4 to 10^-3 M.
